In US20060134243A1, “Method of using extracts of epimedium species” (Bionovo, Inc., priority 2004, published 2006):

How the values were obtained:
[1] = molecular target: T1, ERβ (Homo sapiens, UniProt Q92731); experiment: Repression of TNF-α activation of TNF-RE-tk-Luc with ERβ (Example 2); assay type: cell-based; conditions: in the presence of ERβ
T1 construct: expressed in transfected cells
Source text: (§1) Plasmid Construction. A PstI to AhaII fragment from the human TNF-α gene, pLT, was cloned upstream of the luciferase cDNA. […] ERβ mutants were created with QuikChange site-directed mutagenesis kits (Stratagene), by using oligonucleotides containing the mutation. The mutants were sequenced with Sequenase kits (Amersham Pharmacia) to verify the presence of the mutation.
(§2) For experiments, cells were collected, transferred to a cuvette, and then electroporated with a Bio-Rad gene pulser as described previously using 3 μg of reporter plasmid and 1 μg of ERα or ERβ expression vectors. After electroporation, the cells were re-suspended in media and plated at 1 ml/dish in 12-well multiplates. […] The concentration of hormone required to produce a half-maximal induction (EC50) or inhibition (IC50) of luciferase activity was calculated with the Prism curve-fitting program (Graph Pad Software, version 2.0b). […] The cells were plated in duplicate at a density of 25,000 cells/35-mm plate in tissue culture medium containing 3% stripped fetal bovine serum. […] After 8 days the cells were counted with a Coulter counter.

[2] = molecular target: T1, ERβ; experiment: Repression of TNF-α activation of TNF-RE-tk-Luc in U2OS cells with transfected ERβ; assay type: cell-based
Source text: as §1, §2
The extracts (a and b) were than decanted and only the soluble material was used.

[3] = system: TNF-RE-tk-Luc; experiment: Effect of antiestrogens on TNF-RE-tk-Luc (Example 2); assay type: cell-based, human; conditions: for effect on the repression induced by E2: TNF-RE-tk-Luc; for activation of TNF-RE-tk-Luc: antiestrogens, in contrast to E2
Source text: as §1, §2

[4] = system: breast cancer; conditions: among the 5129 women in the treatment group; median follow-up of 40 months; cited from earlier work
[5] = system: estrogen receptor-positive breast cancer; conditions: five years of therapy; cited from earlier work
[6] = system: primary invasive breast cancer; conditions: women at high risk for breast cancer; cited from earlier work

T1 sequence (Q92731 whole entry): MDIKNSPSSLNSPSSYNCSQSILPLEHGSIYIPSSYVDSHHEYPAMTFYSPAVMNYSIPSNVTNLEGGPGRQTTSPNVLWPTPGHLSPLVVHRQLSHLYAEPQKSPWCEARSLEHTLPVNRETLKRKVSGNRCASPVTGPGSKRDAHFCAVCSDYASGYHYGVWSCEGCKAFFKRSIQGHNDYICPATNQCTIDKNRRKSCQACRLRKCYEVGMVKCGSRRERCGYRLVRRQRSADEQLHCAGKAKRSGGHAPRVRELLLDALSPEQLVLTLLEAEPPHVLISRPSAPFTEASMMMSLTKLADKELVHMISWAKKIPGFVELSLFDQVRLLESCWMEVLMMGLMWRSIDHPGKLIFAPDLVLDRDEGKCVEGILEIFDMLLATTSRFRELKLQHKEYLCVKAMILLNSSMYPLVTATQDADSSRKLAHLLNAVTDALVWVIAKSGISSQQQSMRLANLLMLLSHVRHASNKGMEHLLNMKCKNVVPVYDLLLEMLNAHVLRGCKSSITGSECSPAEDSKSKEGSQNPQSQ

Row | repression of TNF-α activation of TNF-RE-tk-Luc [1] | repression of TNF-α activation of TNF-RE [2] [%] | SMILES | effect on the repression induced by E2 [3] | activation of TNF-RE-tk-Luc [3] [fold] | cases of breast cancer [4] | reduction of mortality from breast cancer [5] [%] | reduction of the risk of recurrences [5] [%] | reduction of the risk of primary invasive breast cancer [6] [%]
1 | 60-80% | 100 | C[C@]12CC[C@@H]3c4ccc(O)cc4CC[C@H]3[C@@H]1CC[C@@H]2O [E2, estradiol] |  |  |  |  |  | 
2 |  |  | C[C@]12CC[C@@H]3c4ccc(O)cc4C[C@@H](CCCCCCCCC[S+]([O-])CCCC(F)(F)C(F)(F)F)[C@H]3[C@@H]1CC[C@@H]2O (stereo partly drawn) [ICI 182,780] | abolished the repression induced by E2 | 2 |  |  |  | 
3 |  |  | O=C(c1ccc(OCCN2CCCCC2)cc1)c1c(-c2ccc(O)cc2)sc2cc(O)ccc12 [raloxifene] | abolished the repression induced by E2 | 2 | 13 |  |  | 
4 |  |  | CC/C(=C(\c1ccccc1)c1ccc(OCCN(C)C)cc1)c1ccccc1 [tamoxifen] | abolished the repression induced by E2 | 2 |  | 22 | 42 | 49
